Assay results taken from publication PMC7238036, “An Interspecies Molecular and Functional Study of Organic Cation Transporters at the Blood-Brain Barrier: From Rodents to Humans” (Pharmaceutics, 2020).

How the values were obtained:
[1] = system: primary human brain microvascular endothelial cells (BMVECs)
Procedure: BMVECs were obtained from isolated human brain microvessels and cultured in petri dishes in the presence of puromycin (P0), to avoid contamination from other cell types. BMVECs were later used in astrocyte-conditioned culture media for protein extraction, or for the establishment of a human BBB model to conduct permeability assays.
After BMVECs amplification, cells were seeded on inserts (Transwell, Corning, ThermoFisher, Les Ulis, France). […] Permeability studies using radiolabeled [^3H]-L-Phenylalanine (~4 nM) or [^3H]-MPP^+ (~6 nM) were performed on BMVECs once the establishment of a good BBB model was verified.

BBB = conditions: cited from earlier work
OCT1 and/or OCT2 = system: OCT1 and/or OCT2; parameters: method as in PMID 20477935; conditions: cited from earlier work

## CC[N+](CC)(CC)CC [TEA, Tetraethylammonium]
[1]; TEA 2 mM, [3H]-MPP+ ~6 nM, OCT1-3/MATE function
  effect of inhibitor on [3H]-MPP+ uptake, apical to basolateral: did not produce any significant decrease
Luminal BBB; TEA 30 mM co-perfusion, all rat and mouse strains tested
  effect of co-perfused inhibitor on [3H]-MPP+ brain extraction/clearance: remained unaltered
BBB; FVB Oct1−/− mice
  modification of [14C]-TEA brain transport: no modification

## CN1CC=C(c2ccccc2)CC1 [MPTP, 1-methyl-4-phenyl-1,2,3,6-tetrahydropyridine]
OCT1 and/or OCT2
  share of MPTP brain uptake accounted for by OCT1 and/or OCT2: more than 90%

## C[n+]1ccc(-c2ccccc2)cc1 [[^3H]-MPP^+, 1-methyl-4-phenylpyridinium]
Luminal BBB; 2-month old mice, six strains
  differences in basal [3H]-MPP+ brain transport between the selected mouse strains: not evidenced
BBB; FVB (wild-type, Oct1/2−/−, Oct3−/−) and Swiss mice (+/- TEA)
  modification of [3H]-MPP+ brain transport: no modification

## N[C@@H](Cc1c[nH]c2ccccc12)C(=O)O [tryptophan]
[1]; tryptophan 5 mM, [3H]-L-phenylalanine ~4 nM, n = 3, p < 0.05
  effect of inhibitor on [3H]-L-phenylalanine uptake, apical to basolateral (SLC7A5): significant decrease
